Experimental data: patent US20180093956A1, “SUBSTITUTED PHTHALAZINES” (AbbVie Inc., priority 2015, published 2018)
Read-outs that look alike come from different tables or passages of the source.

How the values were obtained:
[1] = target: SUV420H1 enzyme (Homo sapiens, UniProt Q4FZB7); assay: TR-FRET SAH SUV420H1 enzyme inhibition assay; assay type: biochemical; details: Histone Peptide H4(8-30)me1 and SAM, TR-FRET detection of SAH, read-out: TR-FRET SAH_SUV420H1 IC50
Description: Test compounds were dispensed by a Labcyte Echo in 384-well low volume assay plates with 3-fold serial dilutions from 50 μM to 0.00075 μM. 5 μL of SUV420H1 enzyme (Abbvie) at 90 nM was added to all wells except for the no enzyme control wells and incubated for 30 minutes at room temperature before 5 μL of Histone Peptide H4(8-30)me1 (Anaspec) at 5 μM and SAM at 4 μM was added to all wells. The plates were incubated in a humidified chamber overnight at room temp and then 10 μL of the detection reagent that contained RIPA buffer (50 mM Tris-HCl, pH 8.0, 150 mM sodium chloride, 1.0% Igepal CA-630 (NP-40), 0.5% sodium deoxycholate and 0.1% sodium dodecyl sulfate) (Sigma) with 2 nM of Terbium chelate anti S-adenosyl-L-homocysteine (SAH) (Abbvie) antibody and Oregon Green labeled SAH at 4 nM was added. The plates were further incubated for 4 hours at room temperature. The plates were read in a Perkin Elmer Envision using a TR-FRET protocol with Excitation set at 335 nm and Emission at 520 and 495 nm. To generate dose response curves the data is normalized to percent inhibition by setting the average of the plus and minus enzyme control wells to 0% and 100% inhibition respectively. The ICso values for the compounds are generated by fitting the normalized data with Accelrys Assay Explorer 3.3 to a sigmoidal curve model using […], Y=(100*x^n)/(K^n+x^n), where Y is the measured response, x is the compound concentration, n is the Hill Slope and K is the IC50 and the lower and higher asymptotes are constrained to 0 and 100 respectively.

[2] = test system: H4K20me3 in PC-3 cells (SUV420H1 cellular activity); assay: H4K20me3 Cellular PD Assay (high content microscopy); assay type: cell-based; details: treated for 72 hours, H4K20me3 immunofluorescence, read-out: H4K20me3 Inhibition EC50
Description: A high content microscopy-based PD assay was used to analyze the decrease of H4K20me3 upon inhibition of SUV420H1 cellular activity. PC-3 cells were plated at 3,000 cells per well in black Collagen I coated 96-well plates (Perkin Elmer, #6005810) in RPMI supplemented with 10% heat inactivated FBS, 1% sodium pyruvate and 1% non-essential amino acids in a 37° C. tissue culture incubator. At 24 hours post seeding, cells were treated with the indicated compounds for 72 hours in an 8-point dose response using half log dilutions from […] and then fixed in 2% formaldhyde (Polysciences, Inc., #04018) for 10 minutes at room temperature. Cells were washed in PBS and permeablized in 0.1% Triton X-100 for 10 minutes at room temperature. After blocking in 1% BSA (Sigma, #A7030) in PBS for 1 hour at room temperature, a mouse monoclonal antibody directed toward H4K20me3 (Santa Cruz, #sc-134216) in antibody dilution buffer (0.3% BSA in PBS) was added for 16 hours at 4° C. Cells were then washed 3 times in PBS and an Alexa Fluor 555 conjugated goat anti-mouse (Life Technologies #A-21424) secondary antibody was added for 1 hour at room temperature. Hoechst 33342 diluted 1:10000 (Life Technologies #H3570) was also added during the secondary antibody incubation. Cells were washed 3 times in PBS and stored in PBS at 4° C. Fluorescent images were acquired within 24 hours on a Cell Insight (Thermo Fisher Scientific) using the Target Activation algorithm. Objects were identified via nuclear Hoescht staining, and changes in average mean intensity in the fluorescent signals of H4K20me3 were quantified using the HCS View software platform (Thermo Fisher Scientific).

Sequence of SUV420H1 enzyme (Q4FZB7 whole entry): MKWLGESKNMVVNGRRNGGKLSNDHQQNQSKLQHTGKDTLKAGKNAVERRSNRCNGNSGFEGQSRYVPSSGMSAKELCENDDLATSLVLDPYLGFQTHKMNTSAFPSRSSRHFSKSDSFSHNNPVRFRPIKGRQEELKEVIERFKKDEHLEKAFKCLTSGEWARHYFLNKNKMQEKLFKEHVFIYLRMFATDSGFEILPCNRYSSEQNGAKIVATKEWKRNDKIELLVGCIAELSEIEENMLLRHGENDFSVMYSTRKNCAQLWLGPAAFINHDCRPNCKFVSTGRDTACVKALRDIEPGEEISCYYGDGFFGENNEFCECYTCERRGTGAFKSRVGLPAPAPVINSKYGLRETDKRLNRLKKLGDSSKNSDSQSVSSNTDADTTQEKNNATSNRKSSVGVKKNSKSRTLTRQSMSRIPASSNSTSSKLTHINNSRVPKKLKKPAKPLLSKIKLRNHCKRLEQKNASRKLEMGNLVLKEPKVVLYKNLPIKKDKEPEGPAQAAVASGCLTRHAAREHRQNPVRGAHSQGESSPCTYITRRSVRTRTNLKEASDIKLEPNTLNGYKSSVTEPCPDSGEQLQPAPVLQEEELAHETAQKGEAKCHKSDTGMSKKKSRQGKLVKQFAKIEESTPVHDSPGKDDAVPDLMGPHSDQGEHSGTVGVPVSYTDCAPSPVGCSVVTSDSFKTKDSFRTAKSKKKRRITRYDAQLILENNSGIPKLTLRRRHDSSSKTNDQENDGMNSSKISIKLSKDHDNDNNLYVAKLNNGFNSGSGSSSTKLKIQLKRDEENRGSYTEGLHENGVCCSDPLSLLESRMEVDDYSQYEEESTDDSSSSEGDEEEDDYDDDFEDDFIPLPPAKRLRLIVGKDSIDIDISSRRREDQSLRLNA

| Molecule | IC50 [1] | EC50 [2] | EC50 ([2]; Homo sapiens) |
| --- | --- | --- | --- |
| 1-{4-[6,7-dichloro-4-(cyclopentylamino)phthalazin-1-yl]pyridin-2-yl}pyrrolidin-3-ol [Example 36] | 173 nM | 1670 nM |  |
| O=C(NCCO)c1nnc(NC2CCCC2)c2cc(Cl)c(Cl)cc12 [Example 66, 6,7-dichloro-4-(cyclopentylamino)-N-(2-hydroxyethyl)phthalazine-1-carboxamide] | 140 nM |  | 2490 nM |
| CN1CCN(C(=O)Cn2cc(-c3nnc(NC4CCCC4)c4cc(Cl)c(Cl)cc34)cn2)CC1 [Example 61, 2-{4-[6,7-dichloro-4-(cyclopentylamino)phthalazin-1-yl]-1H-pyrazol-1-yl}-1-(4-methylpiperazin-1-yl)ethanone] | 190 nM |  | 4990 nM |
| Clc1cc2c(NC3CCCC3)nnc(-c3ccncc3)c2cc1Cl [Example 6, 6,7-dichloro-N-cyclopentyl-4-(pyridin-4-yl)phthalazin-1-amine] | 38.6 nM |  | 522 nM |
| COC(=O)c1nnc(NC2CCCC2)c2cc(Cl)c(Cl)cc12 [Example 37, methyl 6,7-dichloro-4-(cyclopentylamino)phthalazine-1-carboxylate] | 90.3 nM |  | 1120 nM |
| Clc1cc2c(Cl)nnc(NC3CCCC3)c2cc1Cl [Example 1, 4,6,7-trichloro-N-cyclopentylphthalazin-1-amine] | 361 nM |  | 11400 nM |
| CN(CCO)C(=O)Cn1cc(-c2nnc(NC3CCCC3)c3cc(Cl)c(Cl)cc23)cn1 [Example 57, 2-{4-[6,7-dichloro-4-(cyclopentylamino)phthalazin-1-yl]-1H-pyrazol-1-yl}-N-(2-hydroxyethyl)-N-methylacetamide] | 204 nM |  | 10700 nM |
| Fc1ccc(-c2nnc(NC3CCCC3)c3cc(Cl)c(Cl)cc23)cn1 [Example 19, 6,7-dichloro-N-cyclopentyl-4-(6-fluoropyridin-3-yl)phthalazin-1-amine] | 163 nM |  | 1210 nM |
